Assay results from patent US9770445B2, “Sulfoximine substituted 5-fluoro-N-(pyridin-2-yl)pyridin-2-amine derivatives and their use as CDK9 kinase inhibitors” (BAYER PHARMA AKTIENGESELLSCHAFT, priority 2013, dated 2017).

Legend:
CDK2/CycE = target: T1, CDK2/CycE (Homo sapiens, UniProt P24941); experiment: CDK2/CycE kinase assay (Method 2, TR-FRET); type: biochemical; details: Method 2, 10 μM ATP
T1 construct: GST; purchased ProQinase GmbH (Freiburg, Germany); host or cells: insect cells (Sf9)
Excerpt: 2. CDK2/CycE Kinase Assay:
CDK2/CycE-inhibitory activity of compounds of the present invention was quantified employing the CDK2/CycE TR-FRET assay as described in the following paragraphs:
Recombinant fusion proteins of GST and human CDK2 and of GST and human CycE, expressed in insect cells (Sf9) and purified by Glutathion-Sepharose affinity chromatography, were purchased from ProQinase GmbH (Freiburg, Germany). As substrate for the kinase reaction biotinylated peptide biotin-Ttds-YISPLKSPYKISEG (C-terminus in amid form) was used which can be purchased e.g. form the company JERINI Peptide Technologies (Berlin, Germany).
(§1) For the assay 50 nl of a 100 fold concentrated solution of the test compound in DMSO was pipetted into a black low volume 384 well microtiter plate (Greiner Bio-One, Frickenhausen, Germany), 2 μl of a solution of CDK2/CycE in aqueous assay buffer [50 mM Tris/HCl pH 8.0, 10 mM MgCl2, 1.0 mM dithiothreitol, 0.1 mM sodium ortho-vanadate, 0.01% (v/v) Nonidet-P40 (Sigma)] were added and the mixture was incubated for 15 min at 22° C. to allow pre-binding of the test compounds to the enzyme before the start of the kinase reaction. Then the kinase reaction was started by the addition of 3 μl of a solution of adenosine-tri-phosphate (ATP, 16.7 μM=>final conc. in the 5 μl assay volume is 10 μM) and substrate (1.25 μM=>final conc. in the 5 μl assay volume is 0.75 μM) in assay buffer and the resulting mixture was incubated for a reaction time of 25 min at 22° C. The concentration of CDK2/CycE was adjusted depending of the activity of the enzyme lot and was chosen appropriate to have the assay in the linear range, typical concentrations were in the range of 130 ng/mL. The reaction was stopped by the addition of 5 μl of a solution of TR-FRET detection reagents (0.2 μM streptavidine-XL665 [Cisbio Bioassays, Codolet, France] and 1 nM anti-RB(pSer807/pSer811)-antibody from BD Pharmingen [#558389] and 1.2 nM LANCE EU-W1024 labeled anti-mouse IgG antibody [Perkin-Elmer, product no. AD0077]) in an aqueous EDTA-solution (100 mM EDTA, 0.2% (w/v) bovine serum albumin in 100 mM HEPES/NaOH pH 7.0).
(§2) The resulting mixture was incubated 1 h at 22° C. to allow the formation of complex between the phosphorylated biotinylated peptide and the detection reagents. Subsequently the amount of phosphorylated substrate was evaluated by measurement of the resonance energy transfer from the Eu-chelate to the streptavidine-XL. Therefore, the fluorescence emissions at 620 nm and 665 nm after excitation at 350 nm was measured in a TR-FRET reader, e.g. a Rubystar (BMG Labtechnologies, Offenburg, Germany) or a Viewlux (Perkin-Elmer). The ratio of the emissions at 665 nm and at […] was taken as the measure for the amount of phosphorylated substrate. The data were normalised (enzyme reaction without inhibitor=0% inhibition, all other assay components but no enzyme=100% inhibition).

CDK9/CycT1 = target: T2, CDK9/CycT1 (Homo sapiens, UniProt P50750); experiment: CDK9/CycT1 kinase assay (Method 1a, TR-FRET); type: biochemical; details: for IC50: Method 1a, 10 μM ATP; for Selectivity CDK9 over CDK2: IC50 (CDK2)/IC50 (CDK9): ratio of Method 2 to Method 1a values
T2 construct: Recombinant full-length His-tagged human CDK9 and CycT1; His; purchased Invitrogen PV4131; host or cells: insect cells
T2 sequence (P50750 whole entry): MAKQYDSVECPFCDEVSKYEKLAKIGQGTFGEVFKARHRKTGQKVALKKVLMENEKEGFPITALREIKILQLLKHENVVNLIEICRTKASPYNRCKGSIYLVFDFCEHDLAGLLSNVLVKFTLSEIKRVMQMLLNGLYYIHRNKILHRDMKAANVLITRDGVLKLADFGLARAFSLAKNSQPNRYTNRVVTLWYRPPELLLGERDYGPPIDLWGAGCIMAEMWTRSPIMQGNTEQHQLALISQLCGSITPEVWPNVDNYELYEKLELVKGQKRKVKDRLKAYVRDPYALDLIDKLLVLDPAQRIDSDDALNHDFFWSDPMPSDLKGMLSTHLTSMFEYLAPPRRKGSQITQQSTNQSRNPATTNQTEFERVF
T2 sequence (O60563 whole entry partner): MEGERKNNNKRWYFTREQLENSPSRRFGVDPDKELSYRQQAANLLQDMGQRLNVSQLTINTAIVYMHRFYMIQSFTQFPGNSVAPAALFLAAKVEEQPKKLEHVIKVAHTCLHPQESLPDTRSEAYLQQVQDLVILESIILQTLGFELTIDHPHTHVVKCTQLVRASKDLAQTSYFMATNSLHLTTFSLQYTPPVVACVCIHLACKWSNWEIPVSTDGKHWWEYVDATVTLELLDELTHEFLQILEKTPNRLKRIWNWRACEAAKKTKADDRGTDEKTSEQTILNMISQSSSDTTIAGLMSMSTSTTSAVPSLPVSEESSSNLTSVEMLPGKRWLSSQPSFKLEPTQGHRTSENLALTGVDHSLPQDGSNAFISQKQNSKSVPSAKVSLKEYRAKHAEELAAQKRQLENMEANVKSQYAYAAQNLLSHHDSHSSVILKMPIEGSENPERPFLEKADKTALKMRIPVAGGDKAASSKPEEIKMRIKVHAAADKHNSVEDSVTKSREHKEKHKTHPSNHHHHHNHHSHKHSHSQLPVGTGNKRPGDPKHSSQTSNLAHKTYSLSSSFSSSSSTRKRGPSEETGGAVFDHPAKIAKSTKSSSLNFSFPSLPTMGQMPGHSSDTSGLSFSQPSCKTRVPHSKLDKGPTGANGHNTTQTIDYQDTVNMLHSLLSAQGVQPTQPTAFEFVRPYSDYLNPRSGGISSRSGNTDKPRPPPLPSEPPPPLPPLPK
Excerpt: 1a. CDK9/CyeT1 Kinase Assay:
CDK9/CycT1-inhibitory activity of compounds of the present invention was quantified employing the CDK9/CycT1 TR-FRET assay as described in the following paragraphs:
as §1, with “Recombinant full-length His-tagged human CDK9 and CycT1, expressed in insect cells and purified by Ni-NTA affinity chromatography, were purchased from Invitrogen (Cat. No PV4131). As substrate for the kinase reaction biotinylated peptide biotin-Ttds-YISPLKSPYKISEG (C-terminus in amid form) was used which can be purchased e.g. form the company JERINI Peptide Technologies (Berlin, Germany). For” for “For”, “CDK9/CycT1” for “CDK2/CycE”, “(1.67” for “(1.25”, “1” for “0.75”, “1 μg/mL.” for “130 ng/mL.”
as §2, with “HTRF” for “TR-FRET”

Row | IC50 (CDK2/CycE) [nM] | IC50 (CDK9/CycT1) [nM] | Selectivity CDK9 over CDK2: IC50 (CDK2)/IC50 (CDK9) (CDK9/CycT1) | SMILES
1 | 146 | 2.6 | 56 | CS(=O)(Cc1ccnc(Nc2cc(-c3ccc(F)c4ccoc34)c(F)cn2)c1)=NC#N (racemic) [Example 9, (rac)-{[(2-{[5-fluoro-4-(4-fluoro-1-benzofuran-7-yl)pyridin-2-yl]amino}pyridin-4-yl)methyl](methyl)oxido-λ^6-sulfanylidene}cyanamide]
2 | 130 | 3.4 | 38 | CS(=N)(=O)Cc1ccnc(Nc2cc(-c3ccc(F)c4ccoc34)c(F)cn2)c1 (racemic) [Example 5, (rac)-5-Fluoro-4-(4-fluoro-1-benzofuran-7-yl)-N-{4-[(S-methylsulfonimidoyl)methyl]pyridin-2-yl}pyridin-2-amine]
3 | 14 |  |  | CCc1cc(CS(C)(=N)=O)cc(Nc2cc(-c3ccc(F)c4ccoc34)c(F)cn2)n1 (racemic) [Example 8, (rac)-N-{6-Ethyl-4-[(S-methylsulfonimidoyl)methyl]pyridin-2-yl}-5-fluoro-4-(4-fluoro-1-benzofuran-7-yl)pyridin-2-amine]
4 | 166 | 2.7 | 61 | CC(=O)N=S(C)(=O)Cc1ccnc(Nc2cc(-c3ccc(F)c4ccoc34)c(F)cn2)c1 (racemic) [Example 10, (rac)-N-{[(2-{[5-fluoro-4-(4-fluoro-1-benzofuran-7-yl)pyridin-2-yl]amino}pyridin-4-yl)methyl](methyl)oxido-λ^6-sulfanylidene}acetamide]
5 | 113 | 2.6 | 44 | CCNC(=O)N=S(C)(=O)Cc1ccnc(Nc2cc(-c3ccc(F)c4ccoc34)c(F)cn2)c1 (racemic) [Example 12, (rac)-1-Ethyl-3-{[(2-{[5-fluoro-4-(4-fluoro-1-benzofuran-7-yl)pyridin-2-yl]amino}pyridin-4-yl)methyl](methyl)oxido-λ^6-sulfanylidene}urea]
6 | 380 | 7 | 54 | CS(=O)(Cc1cc(F)nc(Nc2cc(-c3ccc(F)c4ccoc34)c(F)cn2)c1)=NC(=O)C(F)(F)F (racemic) [Example 2, (rac)-2,2,2-Trifluoro-N-{[(2-fluoro-6-{[5-fluoro-4-(4-fluoro-1-benzofuran-7-yl)pyridin-2-yl]amino}pyridin-4-yl)methyl](methyl)oxido-λ^6-sulfanylidene}acetamide]
7 | 280 | 2.6 | 108 | CS(=O)(Cc1ccnc(Nc2cc(-c3ccc(F)c4ccoc34)c(F)cn2)c1)=NC(=O)NCC(F)(F)F (racemic) [Example 13, (rac)-1-{[(2-{[5-Fluoro-4-(4-fluoro-1-benzofuran-7-yl)pyridin-2-yl]amino}pyridin-4-yl)methyl](methyl)oxido-λ^6-sulfanylidene}-3-(2,2,2-trifluoroethyl)urea]
8 | 110 | 19 | 5.8 | CS(=O)(Cc1cc(Nc2cc(-c3ccc(F)c4ccoc34)c(F)cn2)nc(C(F)(F)F)c1)=NC(=O)C(F)(F)F (racemic) [Example 4, (rac)-2,2,2-Trifluoro-N-[{[2-{[5-fluoro-4-(4-fluoro-1-benzofuran-7-yl)pyridin-2-yl]amino}-6-(trifluoromethyl)pyridin-4-yl]methyl}(methyl)oxido-λ^6-sulfanylidene]acetamide]
9 | 39 | 2.1 | 19 | Cc1cc(CS(C)(=N)=O)cc(Nc2cc(-c3ccc(F)c4ccoc34)c(F)cn2)n1 (racemic) [Example 7, (rac)-5-Fluoro-4-(4-fluoro-1-benzofuran-7-yl)-N-{6-methyl-4-[(S-methylsulfonimidoyl)-methyl]pyridin-2-yl}pyridin-2-amine]
10 | 42 | 4 | 11 | CS(=N)(=O)Cc1cc(F)nc(Nc2cc(-c3ccc(F)c4ccoc34)c(F)cn2)c1 (racemic) [Example 1, (rac)-5-Fluoro-4-(4-fluoro-1-benzofuran-7-yl)-N-{6-fluoro-4-[(S-methylsulfonimidoyl)methyl]pyridin-2-yl}pyridin-2-amine]
11 | 138 | 3.1 | 45 | CCOC(=O)N=S(C)(=O)Cc1ccnc(Nc2cc(-c3ccc(F)c4ccoc34)c(F)cn2)c1 (racemic) [Example 11, (rac)-Ethyl {[(2-{[5-fluoro-4-(4-fluoro-1-benzofuran-7-yl)pyridin-2-yl]amino}pyridin-4-yl)methyl](methyl)oxido-λ^6-sulfanylidene}carbamate]
12 | 540 | 4.9 | 110 | CS(=O)(Cc1ccnc(Nc2cc(-c3ccc(F)c4ccoc34)c(F)cn2)c1)=NC(=O)C(F)(F)F (racemic) [Example 6, (rac)-2,2,2-Trifluoro-N-{[(2-{[5-fluoro-4-(4-fluoro-1-benzofuran-7-yl)pyridin-2-yl]amino}pyridin-4-yl)methyl](methyl)oxido-λ^6-sulfanylidene}acetamide]
13 | 21 | 5.8 | 3.6 | CS(=N)(=O)Cc1cc(Nc2cc(-c3ccc(F)c4ccoc34)c(F)cn2)nc(C(F)(F)F)c1 (racemic) [Example 3, (rac)-5-Fluoro-4-(4-fluoro-1-benzofuran-7-yl)-N-{4-[(S-methylsulfonimidoyl)methyl]-6-(trifluoromethyl)pyridin-2-yl}pyridin-2-amine]
